Source: US20250073251A1, “COMPOSITIONS AND METHODS AND USES THEREOF” (Journey Medical Corporation, priority 2019, published 2025)
“And” between values parts separate entries of the source, which are not always exact repeats. Identical values can stand only once.

Experiments:
[1] = Toxicokinetics after daily dermal application
Method: Bioanalytical Sample Collection Blood samples (approximately 2 mL) are collected from all surviving animals via the abdominal vena cava through the thoracic inlet for determination of the plasma concentrations of adapalene and minocycline (see Tables 5 and 6). The animals were not fasted prior to blood collection, with the exception of the intervals that coincided with fasting for clinical pathology collections.
Blood samples are collected in tubes containing K2EDTA and placed on wet ice and centrifuged under refrigerated conditions. The resulting plasma is divided into 3 aliquots (100 μL in Aliquot 1 [minocycline], 500 μL in Aliquot 2 [adapalene], and any remaining plasma in Aliquot 3) in pre-labeled cryovials. All aliquots are stored frozen at −60° C. to −90° C.
The TK parameters are determined for adapalene and minocycline from individual concentration-time data by the Testing Facility.

[2] = tested on: moderate-to-severe acne vulgaris; details: human, in vivo

COc1ccc(-c2ccc3cc(C(=O)O)ccc3c2)cc1C12CC3CC(CC(C3)C1)C2 [adapalene]
mean Cmax and AUC0-24hr for adapalene versus dose ([1]; 0.25 to […] adapalene with […] minocycline, Day 91): approximately dose proportional | systemic exposure, dependence on sex ([1]; Day 91): independent of sex | Tmax ([1]; Group 3, adapalene […] alone, daily dermal, Day 91, minimum-maximum (median not reported)): (0-8) hr | Tmax ([1]; Group 4, adapalene […] + minocycline […] FCD105 Foam, Day 1, minimum-maximum (median not reported)): (8-24) hr | Tmax ([1]; Group 4, adapalene […] + minocycline […] FCD105 Foam, Day 91, minimum-maximum (median not reported)): (0-24) hr | Tmax ([1]; Göttingen, minipig, plasma, topical or ocular, […], Tmax, Group 3, adapalene […] alone, daily dermal, Day 1, median): 24 h | Tmax ([1]; Göttingen, minipig, plasma, topical or ocular, […], Tmax, Group 5, adapalene […] + minocycline […] FCD105 Foam, Day 1, median): 24 h | Tmax ([1]; Göttingen, minipig, plasma, topical or ocular, […], Tmax, Group 5, adapalene […] + minocycline […] FCD105 Foam, Day 91, median): 1 h | Tmax ([1]; Göttingen, minipig, plasma, topical or ocular, […], Tmax, Group 6, adapalene […] + minocycline […] FCD105 Foam, Day 1, median): 24 h | Tmax ([1]; Göttingen, minipig, plasma, topical or ocular, […], Tmax, Group 6, adapalene […] + minocycline […] FCD105 Foam, Day 91, median): 1 h

COc1ccc(-c2ccc3cc(C(=O)O)ccc3c2)cc1C12CC3CC(CC(C3)C1)C2 [0.3% adapalene foam]
AE Maximum Severity: Mild [2]: 14 (12.5%) | AE Maximum Severity: Moderate [2]: 4 (3.6%) | AE Maximum Severity: Severe [2]: 2 (1.8%) | Abdominal pain [2]: 0 subjects (%) | Acne, (%) of subjects [2]: (1.8%) | Buming sensation [2]: 0 subjects (%) | Burning and Stinging: None, subjects n (%) [2]: 82 (78.1%) and 97 (92.4%) and 89 (89.9%) and 105 (93.8%) | Burning and Stinging: Severe, subjects n (%) [2]: 0 | Burning sensation [2]: 0 subjects (%) | Constipation [2]: 0 subjects (%) | Dehydration [2]: 0 subjects (%) | Dermatitis contact [2]: 0 subjects (%) | Diastolic Blood Pressure, Max [2]: 58, 98 mmHg and 56, 93 mmHg and 57, 94 mmHg and 48, 94 mmHg | Diastolic Blood Pressure, Mean [2]: 73.1 mmHg and 72.8 mmHg and 72.1 mmHg | Diastolic Blood Pressure, Median [2]: 72.0 mmHg | Diastolic Blood Pressure, Min [2]: 58, 98 mmHg and 56, 93 mmHg and 57, 94 mmHg and 48, 94 mmHg | Dryness: Mild, subjects n (%) [2]: 27 (24.1%) and 26 (24.8%) and 17 (17.2%) | Dryness: None, subjects n (%) [2]: 82 (73.2%) and 75 (71.4%) and 77 (73.3%) and 81 (81.8%) | Dryness: Severe, subjects n (%) [2]: 0 | Erythema: Mild, subjects n (%) [2]: 36 (32.1%) and 27 (25.7%) and 36 (34.3%) and 27 (27.3%) | Erythema: None, subjects n (%) [2]: 51 (45.5%) and 55 (52.4%) and 58 (55.2%) and 62 (62.6%) | Erythema: Severe, subjects n (%) [2]: 1 (0.9%) and 2 (1.9%) and 1 (1.0%) | Heart Rate, Max [2]: 52, 100 beats/min and 52, 99 beats/min and 51, 99 beats/min and 52, 96 beats/min | Heart Rate, Mean [2]: 75.9 beats/min and 76.1 beats/min and 75.7 beats/min and 74.1 beats/min | Heart Rate, Median [2]: 73.0 beats/min and 77.0 beats/min and 76.0 beats/min | Heart Rate, Min [2]: 52, 100 beats/min and 52, 99 beats/min and 51, 99 beats/min and 52, 96 beats/min | Hyperaesthesia [2]: 0 subjects (%) | Hyperpigmentation: Mild, subjects n (%) [2]: 20 (19.0%) and 19 (19.2%) and 31 (27.7%) and 22 (21.0%) | Hyperpigmentation: Moderate, subjects n (%) [2]: 4 (3.8%) and 4 (4.0%) and 6 (5.4%) | Hyperpigmentation: None, subjects n (%) [2]: 81 (77.1%) and 76 (76.8%) and 75 (67.0%) and 79 (75.2%) | Hyperpigmentation: Severe, subjects n (%) [2]: 0 | Immune system disorders [2]: 0 subjects (%) | Infectious mononucleosis [2]: 0 subjects (%) | Itching: None, subjects n (%) [2]: 87 (77.7%) and 79 (75.2%) and 86 (81.9%) and 86 (86.9%) | Ligament rupture [2]: 0 subjects (%) | Metabolism and nutrition disorders [2]: 0 subjects (%) | Nail discolouration [2]: 0 subjects (%) | Nasopharyngitis [2]: 0 subjects (%) | Nausea [2]: 0 subjects (%) | Neoplasms benign, malignant and unspecified (incl cysts and polyps) [2]: 0 subjects (%) | Number (%) of subjects withdrawn from study due to TEAE [2]: 3 (2.7%) subjects (%) | Number (%) of subjects withdrawn from study due to treatment-related TEAE [2]: 3 (2.7%) subjects (%) | Oropharyngeal pain [2]: 0 subjects (%) | Otitis media acute [2]: 0 subjects (%) | Pain [2]: 0 subjects (%) | Pain of skin [2]: 0 subjects (%) | Paranasal sinus discomfort [2]: 0 subjects (%) | Pharyngitis streptococcal [2]: 0 subjects (%) | Pyogenic granuloma [2]: 0 subjects (%) | Rash, (%) of subjects [2]: (0.9%) | Rhinorrhoea [2]: 0 subjects (%) | Scaling: Mild, subjects n (%) [2]: 21 (18.8%) and 19 (18.1%) and 17 (16.2%) and 12 (12.1%) | Scaling: Moderate, subjects n (%) [2]: 2 (1.8%) and 3 (2.9%) and 2 (1.9%) and 3 (3.0%) | Scaling: None, subjects n (%) [2]: 89 (79.5%) and 83 (79.0%) and 86 (81.9%) and 84 (84.8%) | Scaling: Severe, subjects n (%) [2]: 0 | Sciatica [2]: 0 subjects (%) | Seasonal allergy [2]: 0 subjects (%) | Serious AE [2]: 0 | Subjects reporting at least one treatment-related TEAE [2]: 10 (8.9%) subjects (%) | Subjects with any TEAE leading to discontinuation of study drug [2]: 3 (2.7%) | Subjects with at least one AE [2]: 20 (17.9%) | Systolic Blood Pressure, Max [2]: 92, 150 mmHg and 96, 150 mmHg and 95, 152 mmHg and 92, 149 mmHg | Systolic Blood Pressure, Mean [2]: 116.7 mmHg | Systolic Blood Pressure, Min [2]: 92, 150 mmHg and 96, 150 mmHg and 95, 152 mmHg and 92, 149 mmHg | TEAE: Abdominal pain [2]: 0 | TEAE: Acne [2]: 2 (1.8%) | TEAE: Acute sinusitis [2]: 1 (0.9%) | TEAE: Burning sensation [2]: 0 | TEAE: Burns first degree [2]: 1 (0.9%) | TEAE: Constipation [2]: 0 | TEAE: Cough [2]: 1 (0.9%) | TEAE: Dehydration [2]: 0 | TEAE: Dermatitis contact [2]: 0 | TEAE: Diarrhoea [2]: 1 (0.9%) | TEAE: Dry skin [2]: 4 (3.6%) | TEAE: Eczema [2]: 1 (0.9%) | TEAE: Erythema of eyelid [2]: 1 (0.9%) | TEAE: Eye disorders [2]: 3 (2.7%) | TEAE: Eye irritation [2]: 2 (1.8%) | TEAE: Facial bones fracture [2]: 1 (0.9%) | TEAE: Gastrointestinal disorders [2]: 1 (0.9%) | TEAE: General disorders and administration site conditions [2]: 1 (0.9%) | TEAE: Headache [2]: 2 (1.8%) | TEAE: Hordeolum [2]: 1 (0.9%) | TEAE: Hyperaesthesia [2]: 0 | TEAE: Immune system disorders [2]: 0 | TEAE: Infections and infestations [2]: 8 (7.1%) | TEAE: Infectious mononucleosis [2]: 0 | TEAE: Injury, poisoning and procedural complications [2]: 2 (1.8%) | TEAE: Ligament rupture [2]: 0 | TEAE: Ligament sprain [2]: 1 (0.9%) | TEAE: Metabolism and nutrition disorders [2]: 0 | TEAE: Nail discolouration [2]: 0 | TEAE: Nasopharyngitis [2]: 0 | TEAE: Nausea [2]: 0 | TEAE: Neoplasms benign, malignant and unspecified (incl cysts and polyps) [2]: 0 | TEAE: Nervous system disorders [2]: 2 (1.8%) | TEAE: Oropharyngeal pain [2]: 0 | TEAE: Otitis media acute [2]: 0 | TEAE: Pain [2]: 0 | TEAE: Pain of skin [2]: 0 | TEAE: Pharyngitis [2]: 1 (0.9%) | TEAE: Pharyngitis streptococcal [2]: 0 | TEAE: Pyogenic granuloma [2]: 0 | TEAE: Rash [2]: 2 (1.8%) | TEAE: Respiratory, thoracic and mediastinal disorders [2]: 1 (0.9%) | TEAE: Rhinorrhoea [2]: 0 | TEAE: Sciatica [2]: 0 | TEAE: Seasonal allergy [2]: 0 | TEAE: Sinusitis [2]: 1 (0.9%) | TEAE: Skin discolouration [2]: 1 (0.9%) | TEAE: Skin irritation [2]: 1 (0.9%) | TEAE: Staphylococcal infection [2]: 1 (0.9%) | TEAE: Toothache [2]: 0 | TEAE: Upper respiratory tract infection [2]: 1 (0.9%) | TEAE: Viral upper respiratory tract infection [2]: 1 (0.9%) | TEAE: Vomiting [2]: 0 | Toothache [2]: 0 subjects (%) | Treatment-Related AE [2]: 10 (8.9%) | Vomiting [2]: 0 subjects (%) | Weight, Max [2]: 43.5, 163.3 kg and 43.5, 166.0 kg | Weight, Mean [2]: 77.06 kg and 77.28 kg | Weight, Median [2]: 71.10 kg and 71.50 kg | Weight, Min [2]: 43.5, 163.3 kg and 43.5, 166.0 kg | Withdrawal from Study, Primary Reason: Adverse Event, % of subjects [2]: 3 (2.7%) | Withdrawal from Study, Primary Reason: Adverse Event, number of subjects [2]: 3 (2.7%) | adverse events assessed as mild in severity [2]: 12.5% | dry skin adverse event [2]: 3.6% | overall tolerability (LSTA) scores compared to the other treatment groups [2]: lower | subject discontinuations due to a treatment emergent adverse event [2]: 2.7% | subjects with TEAEs that led to discontinuation of study drug [2]: 3 subjects | subjects with severe (treatment related) TEAE [2]: 1.8% | treatment emergent adverse events, frequency [2]: 8.9% | TEAE: Skin and subcutaneous tissue disorders ([2]; sc): 10 (8.9%)
